Laboratory results: patent US20140357512A1, “HISTONE DEACETYLASE (HDAC) BIOMARKERS IN MULTIPLE MYELOMA” (priority 2013, published 2014)

System: human myeloma cell line MM.1S
Assay: SILAC acetylated-lysine peptide profiling, HDAC inhibitor vs DMSO (light/heavy ratio)
Type: cell-based
From the text: An embodiment of the invention comprises utilizing the SILAC method in order to quantitate changes in protein expression between two or more populations of cells. The SILAC method is a technique based on mass spectrometry that detects differences in protein abundance among samples using non-radioactive isotopic labeling. The SILAC method is known in the art, and described in detail in Ong et al., “Stable Isotope Labeling by Amino Acids in Cell Culture, SILAC, as a Simple and Accurate Approach to Expression Proteomics”, Molecular & Cellular Proteomics, vol. 1, pp. 376-386 (2002), which is incorporated herein by reference in its entirety.
Briefly, the SILAC method involves growing two populations of cells in cell culture. The first population of cells is grown in growth media containing normal amino acids (“normal media”). The second population of cells is grown in media lacking a standard essential amino acid (such as lysine), but is then supplemented with a non-radioactive, isotopically labeled form of that essential amino acid (such as lysine labeled with ^13C atoms, rather than normal ^12C atoms), which is called “heavy media”. When the two populations of cells are each growing in the medium, they incorporate the amino acids into all of their proteins. The growth of cells maintained in the heavy media is no different from that in normal media. All peptides containing the heavy amino acids are heavier than their normal counterparts. The cells from each of the two populations of cells are lysed. The lysates from each of the two cell populations are then combined. The combined cell lysates are then analyzed by mass spectrometry. Pairs of chemically identical peptides of different stable isotope composition can be differentiated in a mass spectrometer due to their difference in mass. The ratio of peak intensities in the mass spectrum for such peptide pairs reflects the abundance ratio for the two proteins.
This example describes SILAC studies that were performed to compare the effects of three different HDAC inhibitors (Compound A, Compound B, and tubastatin A) to a control on a human multiple myeloma cell line. The HDAC inhibitors were also compared amongst themselves to determine differences in their effects.
A human myeloma cell line MM.1S was grown using either ^12C (light) or ^13C (heavy) lysine containing culture medium. The “heavy” cells were treated with DMSO as the control, and the “light” cells were treated with a single HDAC inhibitor at 37° C. for 6 hours. The heavy and light cells were lysed, and the lysates were mixed in 1:1 ratio and digested with the protease trypsin. The acetylated lysine containing peptides (due to the action of the HDAC inhibitor) in the digested peptide pool were captured by a non-specific anti-acetylated lysine antibody cocktail (the antibodies identify both light and heavy acetylated peptides), and subjected to mass spectrometry analysis in order to identify thousands of individual peptides.
Thousands of peptides were identified in pairs (^12C and ^13C) due to their known mass differences. The amino acid sequence and quantitative ratio (Light/Heavy) of a given peptide in two differentially treated cell lysates were then determined and annotated with their possible protein (gene) sources.
As stated above, three HDAC inhibitors (Compound A, Compound B, and Tubastatin A) were used. Thus, the SILAC method was performed three times, with a different HDAC inhibitor compared to a control each time. Accordingly, there are three pairs of quantitative data in the table below, i.e., Compound A:DMSO, Compound B:DMSO, and Tubastatin A:DMSO. A cut-off of 1.30 fold of change (increase or decrease) was then used to determine “changed” or “+” in the table, and any peptides with a fold of change less than 1.3 fold were determined to be “unchanged” or “0” in the table. Those peptides that were not identified were marked as “NA” in the table. […]

O=C(CCCCCCNC(=O)c1cnc(N(c2ccccc2)c2ccccc2)nc1)NO [Compound A, 2-(diphenylamino)-N-(7-(hydroxyamino)-7-oxoheptyl)pyrimidine-5-carboxamide]
L/H ratio of acetylated peptide TVGQLYK(ac)EQLAK (SEQ ID NO: 731, Isoform 1 of Myosin-9 [651], MYH9): 0.75 log 2 | L/H ratio of acetylated peptide AAETCQEPK(ac)EFR (SEQ ID NO: 732, NADH dehydrogenase [ubiquinone] 1 alpha subcomplex assembly factor 4 [91], NDUFAF4): 0.75 log 2 | L/H ratio of acetylated peptide VVLIGDSGVGK(ac)SNLLSR (SEQ ID NO: 733, Ras-related protein Rab-11B [24], RAB11B): 0.76 log 2 | L/H ratio of acetylated peptide SGK(ac)YVLGYK (SEQ ID NO: 734, 60S ribosomal protein L30 [26], RPL30): 0.76 log 2 | L/H ratio of acetylated peptide ILMEHIHK(ac)LK (SEQ ID NO: 735, 60S ribosomal protein L19 [144], RPL19): 0.76 log 2 | L/H ratio of acetylated peptide EK(ac)VFYSLMR (SEQ ID NO: 736, Epoxide hydrolase 1 [288], EPHX1): 0.78 log 2 | L/H ratio of acetylated peptide K(ac)FDQLLAEEK (SEQ ID NO: 737, Isoform 1 of Myosin-9 [1445], MYH9): 0.78 log 2 | L/H ratio of acetylated peptide FVEFDMK(ac)PVCK (SEQ ID NO: 738, Isoform 2 of LIM and senescent cell antigen-like-containing domain protein 2 [326], LIMS2): 0.79 log 2 | L/H ratio of acetylated peptide K(ac)GFITVDGR (SEQ ID NO: 739, Laminin subunit alpha-1 [2808], LAMA1): 0.79 log 2 | L/H ratio of acetylated peptide KAEAQIAAK(ac)NLDK (SEQ ID NO: 740, Aspartate aminotransferase mitochondrial [90], GOT2): 0.80 log 2 | L/H ratio of acetylated peptide DK(ac)QFVAK (SEQ ID NO: 741, Staphylococcal nuclease domain-containing protein 1 [341], SND1): 0.80 log 2 | L/H ratio of acetylated peptide AGACNTVIK(ac)QLMR (SEQ ID NO: 742, Isoform SERCA3B of Sarcoplasmic/endoplasmic reticulum calcium ATPase 3 [476], ATP2A3): 0.82 log 2 | L/H ratio of acetylated peptide KQQAK(ac)FDECVLDK (SEQ ID NO: 743, NADH dehydrogenase [ubiquinone] 1 alpha subcomplex subunit 8 [106], NDUFA8): 0.82 log 2 | L/H ratio of acetylated peptide ALCTGEK(ac)GFGYK (SEQ ID NO: 744, Peptidyl-prolyl cis-trans isomerase F mitochondrial [86], PPIF): 0.82 log 2 | L/H ratio of acetylated peptide IYK(ac)SDGIK (SEQ ID NO: 745, ADP/ATP translocase 2 [166], SLC25A5): 0.83 log 2 | L/H ratio of acetylated peptide DEGGK(ac)AFFK (SEQ ID NO: 746, ADP/ATP translocase 2 [268], SLC25A5): 0.84 log 2 | L/H ratio of acetylated peptide SYLK(ac)EFR (SEQ ID NO: 747, Isoform 1 of Trans-23-enoyl-CoA reductase [291], TECR): 0.85 log 2 | L/H ratio of acetylated peptide VPK(ac)TAENFR (SEQ ID NO: 748, Peptidyl-prolyl cis-trans isomerase D [43], PPID): 0.85 log 2 | L/H ratio of acetylated peptide VNCLDK(ac)FWHK (SEQ ID NO: 749, Isoform 1 of LIM and SH3 domain protein 1 [23], LASP1): 0.85 log 2 | L/H ratio of acetylated peptide KGEDFVK(ac)TLK (SEQ ID NO: 750, Malate dehydrogenase mitochondrial [335], MDH2): 0.85 log 2 | L/H ratio of acetylated peptide EAEFTK(ac)SIAK (SEQ ID NO: 751, Signal peptidase complex subunit 2 [191], LOC653566, SPCS2): 0.86 log 2 | L/H ratio of acetylated peptide SGYYK(ac)VLGK (SEQ ID NO: 752, 60S ribosomal protein L27a [110], RPL27A): 0.86 log 2 | L/H ratio of acetylated peptide YVLGYK(ac)QTLK (SEQ ID NO: 753, 60S ribosomal protein L30 [32], RPL30): 0.87 log 2 | L/H ratio of acetylated peptide FEDK(ac)TVAYTEQK (SEQ ID NO: 754, Protein disulfide-isomerase A3 [218], PDIA3): 0.88 log 2 | L/H ratio of acetylated peptide IVNALK(ac)SQVDK (SEQ ID NO: 755, Ornithine aminotransferase mitochondrial [102], OAT): 0.88 log 2 | L/H ratio of acetylated peptide ILEFFGLK(ac)K (SEQ ID NO: 756, Protein disulfide-isomerase [308], P4HB): 0.89 log 2 | L/H ratio of acetylated peptide LCGQDLNK(ac)TSR (SEQ ID NO: 757, Isoform 1 of UDP-N-acetylglucosamine--dolichyl-phosphate N-acetylglucosaminephospho-, DPAGT1): 0.89 log 2 | L/H ratio of acetylated peptide (SFDK(ac)NLYR (SEQ ID NO: 477), DNA replication licensing factor MCM4 [220], MCM4): −0.55 log 2 | L/H ratio of acetylated peptide LFAK(ac)[…] (SEQ ID NO: 98) (SFPQ [319], log 2 scale, drug vs DMSO): 0.00 | L/H ratio of acetylated peptide […](ac)GK (SEQ ID NO: 99) (SFPQ [330], log 2 scale, drug vs DMSO): 0.00 | L/H ratio of acetylated peptide GFGFIK(ac)LESR (SEQ ID NO: 97) (SFPQ [338], log 2 scale, drug vs DMSO): 0.00 | L/H ratio of acetylated peptide […](ac)MILIGR (SEQ ID NO: 100) (SFXN1 [86], log 2 scale, drug vs DMSO): 0.00 | L/H ratio of acetylated peptide […](ac)DK (SEQ ID NO: 103) (SLC25A5 [92], log 2 scale, drug vs DMSO): 0.00 | L/H ratio of acetylated peptide AFFK(ac)GAWSNVLR (SEQ ID NO: 102) (SLC25A5 [272], log 2 scale, drug vs DMSO): 0.00 | L/H ratio of acetylated peptide […](ac)ANVAK (SEQ ID NO: 101) (SLC25A10 [173], log 2 scale, drug vs DMSO): 0.00 | L/H ratio of acetylated peptide TWEK(ac)LLLAAR (SEQ ID NO: 104) (SNORA6, RPSAP15, SNORA62, RPSA [57], log 2 scale, drug vs DMSO): 0.00
